From ChEMBL document CHEMBL5230130, “COVID-19 therapy: What weapons do we bring into battle?” (Bioorg Med Chem, 2020)
Values after ≈ are worked out from the molar mass of the structure shown.

Legend:
SARS-CoV-2 [1] = experiment: Antiviral activity against SARS-COV 2; format: functional, organism-based; conditions: Severe acute respiratory syndrome coronavirus 2
[2] = tested on: Middle East respiratory syndrome-related coronavirus; experiment: Antiviral activity against MERS-CoV infected in human Calu-3 2B4 cells assessed as reduction in virus-induced cytopathic effect incubated for 48 hrs by celltiterglo assay; format: functional, organism-based; conditions: Calu-3 2B4, 48 h
SARS-CoV-2 [3] = experiment: Antiviral activity against SARS-COV-2 infected in African green monkey Vero E6 cells assessed as inhibition of viral growth at 6.25 uM relative to control; format: functional; conditions: Severe acute respiratory syndrome coronavirus 2, Vero C1008
[4] = Cytotoxicity against human Calu-3 2B4 cells assessed as cell growth inhibition measured after 48 hrs by celltiterglo assay; format: toxicity, cell-based
SARS-CoV-2 [5] = experiment: Antiviral activity against SARS-COV-2 infected in African green monkey Vero E6 cells assessed as inhibition of viral growth at 0.195 uM relative to control; format: functional; conditions: Severe acute respiratory syndrome coronavirus 2, Vero C1008
SARS-CoV = experiment: Antiviral activity against SARS-COV infected in African green monkey Vero E6 cells assessed as reduction in virus-induced cytopathic effect incubated for 48 hrs by celltiterglo assay; format: functional, organism-based; conditions: Severe acute respiratory syndrome-related coronavirus, Vero C1008, 48 h
[6] = tested on: Middle East respiratory syndrome-related coronavirus; experiment: Antiviral activity against MERS-CoV infected in African green monkey Vero E6 cells assessed as reduction in virus-induced cytopathic effect incubated for 48 hrs by celltiterglo assay; format: functional, organism-based; conditions: Vero C1008, 48 h
[7] = Inhibition of human enteric coronavirus strain 4408 nucleoprotein
[8] = Inhibition of Bovine coronavirus nucleoprotein
RAW264.7 = experiment: Anti-inflammatory activity against mouse RAW264.7 cells assessed as reduction in LPS induced IL-6 level by ELISA analysis; format: functional, cell-based
Peritoneal macrophage = experiment: Anti-inflammatory activity against mouse peritoneal macrophages assessed as reduction in LPS induced IL-6 level by ELISA analysis; format: functional, cell-based
SARS-CoV-2 [9] = experiment: Antiviral activity against SARS-COV-2 infected in African green monkey Vero E6 cells; format: functional, organism-based; conditions: Severe acute respiratory syndrome coronavirus 2, Vero C1008
[10] = Antiviral activity against hCoV-EMC/2012 infected in monkey LLC-MK2 cells assessed as reduction in viral titers; format: functional, Human betacoronavirus 2c EMC/2012
[11] = Antiviral activity against hCoV-EMC/2012 infected in African green monkey Vero cells assessed as reduction in virus-induced cytopathic effect incubated for 24 hrs by […] assay; format: functional, cell-based, Human betacoronavirus 2c EMC/2012; conditions: Middle East respiratory syndrome-related coronavirus
SARS-CoV-2 [12] = experiment: Antiviral activity against SARS-CoV-2 nCoV-2019 BetaCoV/Wuhan/WIV04/2019 infected in African green monkey Vero E6 cells assessed as reduction in virus-induced cytopathic effect incubated for 48 hrs by qRT-PCR analysis; format: functional, organism-based; conditions: Severe acute respiratory syndrome coronavirus 2, nCoV-2019 BetaCoV/Wuhan/WIV04/2019, Vero C1008, 48 h
[13] = Cytotoxicity against African green monkey Vero E6 cells assessed as cell growth inhibition measured after 48 hrs by CCK-8 assay; format: toxicity, cell-based, Vero C1008; conditions: chlorocebus sabaeus
Canine coronavirus = experiment: Antiviral activity against Canine coronavirus S-378 infected in dog A-72 cells; format: functional, organism-based; conditions: Alphacoronavirus 1, S-378, A-72
SARS-CoV-2 [14] = experiment: Antiviral activity against SARS-COV-2 Australia/VIC01/2020 infected in African green monkey Vero cells by RT-PCR assay; format: functional, organism-based, Severe acute respiratory syndrome coronavirus 2

## CC(=O)N[C@@H]1[C@H](Oc2c3cc4cc2Oc2ccc(cc2Cl)[C@@H](O[C@@H]2O[C@@H](CO)[C@@H](O)[C@H](O)[C@@H]2NC(C)=O)[C@@H]2NC(=O)[C@H](NC(=O)[C@@H]4NC(=O)[C@H]4NC(=O)[C@@H](Cc5ccc(c(Cl)c5)O3)NC(=O)[C@H](N)c3ccc(O)c(c3)Oc3cc(O)cc4c3)c3ccc(O)c(c3)-c3c(O[C@H]4O[C@H](CO)[C@@H](O)[C@@H](O)[C@@H]4O)cc(O)cc3[C@@H](C(=O)O)NC2=O)O[C@@H](CO)[C@@H](O)[C@@H]1O
SARS-CoV-2 [1]
  IC50: 1.66 µM

## CCC(CC)COC(=O)[C@H](C)N[P@](=O)(OC[C@H]1O[C@@](C#N)(c2ccc3c(N)ncnn23)[C@H](O)[C@@H]1O)Oc1ccccc1
[2]
  IC50: 0.025 µM
SARS-CoV-2 [3]
  inhibition at 6.25 µM: 64.9%
[4]
  CC50 at 48 h: 10 µM

## CC[C@H]1CN2CCc3cc(OC)c(OC)cc3[C@@H]2C[C@@H]1C[C@H]1NCCc2cc(OC)c(OC)cc21 [EMETINE]
SARS-CoV-2 [5]
  inhibition at 0.195 µM: 64.9%

## Nc1ccn([C@@H]2O[C@H](CO)[C@@H](O)C2(F)F)c(=O)n1 [GEMCITABINE]
SARS-CoV
  EC50: 4.9 µM
[6]
  EC50: 1.2 µM

## CC(=O)Oc1ccccc1C(=O)Nc1ncc([N+](=O)[O-])s1 [NITAZOXANIDE]
[7]
  IC50: 0.3 µg/mL (≈ 0.976 µM)
[8]
  IC50: 0.3 µg/mL (≈ 0.976 µM)
RAW264.7
  IC50: 1540 µM
Peritoneal macrophage
  IC50: 2000 µM

## COC(=O)C[C@](O)(CCCC(C)(C)O)C(=O)O[C@@H]1C(OC)=C[C@]23CCCN2CCc2cc4c(cc2[C@H]13)OCO4 [OMACETAXINE MEPESUCCINATE]
SARS-CoV-2 [9]
  EC50: 2.1 µM

## NC(=O)c1ncn([C@@H]2O[C@H](CO)[C@@H](O)[C@H]2O)n1 [RIBAVIRIN]
[10]
  TCID50: 13.7 µg/mL
[11]
  IC50: 41.4 µg/mL (≈ 170 µM)
SARS-CoV-2 [12]
  EC50: 11000 µM
[13]
  CC50 at 48 h: > 400 µM

## O=C(Nc1ncc([N+](=O)[O-])s1)c1ccccc1O [TIZOXANIDE]
Canine coronavirus
  IC50: 1 µg/mL (≈ 3.77 µM)

## IVERMECTIN
SARS-CoV-2 [14]
  IC50: 2 µM
